Results as given in US10682319B2, “Necrosis inhibitors” (National Institute of Biological Sciences, Beijing, priority 2014, dated 2020).

tested on: HT-29 cells; assay: Necrosis assay (TNF-α/Smac mimetic/z-VAD induced necrosis, cell viability by ATP level); type: cell-based; details: HT-29, TNF-α + Smac mimetic + z-VAD, 24 hrs, ATP level; values given as ranges in nM; read-out: EC50 (inhibition of necrosis in HT-29 cells)
Protocol: HT-29 cells were cultured in McCoy's 5 A culture medium (Invitrogen). On day one, HT-29 cells were plated in 96-well assay plates at density of 2,500-3,500 cells per well. On day two, necrosis were induced by adding 20 ng/ml TNF-α (T), 100 nM Smac mimetic (S), and […] z-VAD (Z). At the same time, […] compound from a chemical library of ˜200,000 compounds was delivered into each well. After 24 hrs treatment, cell viability was determined by measuring ATP level using the CellTiter-Glo Luminescent Cell Viability Assay kit. A CellTiter-Glo Assay (Promega) was performed according to the manufacturer's instructions Luminescence was recorded with a PerkinElmer EnSpire Multimode Plate Reader. Survived cells were normalized to those cells treated with DMSO. Nec-1 was used as a positive control for screening necrosis inhibitors. Data are represented as mean±standard deviation of duplicates
Dose-dependent inhibition of necrosis by the compounds in HT-29 cells were determined by measuring ATP levels as described above.

CCC(C)(C)C(=O)N(C)Cc1ccc(F)c(F)c1F [Compound 49, N,2,2-trimethyl-N-(2,3,4-trifluorobenzyl)butanamide] was tested. Which EC50 did it give?
The EC50 was 1 to 1000 nM.

For CCC(C)(C)C(=O)N(C)Cc1ccccc1F [Compound 13, N-(2-fluorobenzyl)-N,2,2-trimethylbutanamide], which EC50 is on record?
Its EC50 is 1 to 1000 nM.

Which EC50 does the source give for CCC(C)(C)C(=O)N(Cc1ccccc1)OC(C)=O [Compound S3, N-acetoxy-N-benzyl-2,2-dimethylbutanamide] here?
Its EC50 is 1 to 1000 nM.

CCC(C)(C)C(=O)N(C)Cc1ccc(C)s1 [Compound 42, N,2,2-trimethyl-N-((5-methylthiophen-2-yl)methyl)butanamide] was tested. Which EC50 did it give?
The EC50 was 1 to 1000 nM.

Which EC50 does the source give for CCC(C)(C)C(=O)N(O)Cc1ccc(F)c(F)c1F [Compound 97, N-hydroxy-2,2-dimethyl-N-(2,3,4-trifluorobenzyl)butanamide] here?
The EC50 was 1 to 1000 nM.

Which EC50 does the source give for CCC(C)(C)C(=O)N(O)Cc1cc(F)c(F)cc1F [Compound 98, N-hydroxy-2,2-dimethyl-N-(2,4,5-trifluorobenzyl)butanamide] here?
Its EC50 is 1 to 1000 nM.

same assay, conditions: Homo sapiens, HT-29, 24 h, HT-29, TNF-α + Smac mimetic + z-VAD, 24 hrs, ATP level; values given as ranges in uM; read-out: EC50 (inhibition of necrosis in HT-29 cells)

How did the EC50 turn out when CCC(C)(C)C(=O)N(C)Cc1cnc(C)s1 [Compound 44, N,2,2-trimethyl-N-((2-methylthiazol-5-yl)methyl)butanamide] was run?
Its EC50 is 1000 to 10000 nM.

How did the EC50 turn out when CN(Cc1cc(F)cc(F)c1F)[S+]([O-])C(C)(C)C (stereo not drawn) [Compound 78, N,2-dimethyl-N-(2,3,5-trifluorobenzyl)propane-2-sulfinamide] was run?
The EC50 was 1000 to 100000 nM.

CN(Cc1cc(F)c(F)c(F)c1)C(=O)C1CCCC1 [Compound 85, N-methyl-N-(3,4,5-trifluorobenzyl)cyclopentanecarboxamide] was tested. Which EC50 did it give?
Its EC50 is 1000 to 100000 nM.

For CCC(C)(C)C(=O)N[C@@H](C(=O)NCc1ccccc1)c1ccccc1 [Compound 124, (R)—N-(2-(benzylamino)-2-oxo-1-phenylethyl)-2,2-dimethylbutanamide], which EC50 is on record?
Its EC50 is 1000 to 100000 nM.

Which EC50 does the source give for CCN(Cc1cc(F)cc(F)c1F)C(=O)N(C)C(C)C [Compound 115, 1-ethyl-3-isopropyl-3-methyl-1-(2,3,5-trifluorobenzyl)urea] here?
Its EC50 is 1000 to 100000 nM.

CCC(C)(C)C(=O)N(O)CC1=CCCC1 [Compound 140] was tested. Which EC50 did it give?
The EC50 was 1000 to 100000 nM.

Which EC50 does the source give for CCC(C)(C)C(=O)NC(C)c1ccccc1 (stereo not drawn) [Compound 52, 2,2-dimethyl-N-(1-phenylethyl)butanamide] here?
Its EC50 is 1000 to 100000 nM.

For CNCC(C)(C)C(=O)N(C)Cc1cc(F)c(F)c(F)c1 [Compound 68, N,2,2-trimethyl-3-(methylamino)-N-(3,4,5-trifluorobenzyl) propanamide], which EC50 is on record?
The EC50 was 1000 to 100000 nM.

How did the EC50 turn out when CCC(C)(C)C(=O)N[C@@H](CC(=O)NCc1ccccc1)c1ccccc1 [Compound 107, (S)—N-(3-(benzylamino)-3-oxo-1-phenylpropyl)-2,2-dimethylbutanamide] was run?
The EC50 was 1000 to 100000 nM.

CCC(C)(C)C(=O)NCc1ccccc1C(F)(F)F [Compound 4, 2,2-dimethyl-N-(2-(trifluoromethyl)benzyl)butanamide] was tested. Which EC50 did it give?
Its EC50 is 1000 to 10000 nM.

CN(Cc1ccccc1F)C(=O)c1ccccc1 [Compound 61, N-(2-fluorobenzyl)-N-methylbenzamide] was tested. Which EC50 did it give?
Its EC50 is 1000 to 100000 nM.

For CCC(C)(C)C(=O)N(O)CC1CCCCC1 [Compound 141], which EC50 is on record?
Its EC50 is 1000 to 100000 nM.

For CCC(C)(C)C(=O)N[C@@H](CC(=O)NC)c1ccccc1 [Compound 101, (S)-2,2-dimethyl-N-(3-(methylamino)-3-oxo-1-phenylpropyl)butanamide], which EC50 is on record?
Its EC50 is 1000 to 100000 nM.

With CON(Cc1cc(F)c(F)c(F)c1)C(=O)C(C)(C)C(C)(F)F [Compound S19] as the compound, how does the EC50 read?
Its EC50 is 1000 to 100000 nM.

How did the EC50 turn out when CCC(C)(C)C(=O)N(C)C1(c2ccccc2)CC1 [Compound 55, N,2,2-trimethyl-N-(1-phenylcyclopropyl)butanamide] was run?
Its EC50 is 1000 to 100000 nM.

Which EC50 does the source give for CCC(C)(C)C(=O)N(Cc1ccccc1)OC [Compound 151] here?
Its EC50 is 1000 to 100000 nM.

How did the EC50 turn out when CCC(C)(C)C(=O)N[C@@H](CC(=O)NCCOc1ccccc1)c1ccccc1 [Compound 126, (S)-2,2-dimethyl-N-(3-oxo-3-((2-phenoxyethyl)amino)-1-phenylpropyl)butanamide] was run?
Its EC50 is 1000 to 100000 nM.

With CC(C)(C)C(=O)NCc1cc(F)cc(F)c1F [Compound S1, N-(2,3,5-trifluorobenzyl)pivalamide] as the compound, how does the EC50 read?
Its EC50 is 1000 to 10000 nM.
